According to patent US5541290A, “Optically pure calpain inhibitor compounds” (priority 1993, dated 1996):
Where a name gives a salt, the structure may show the parent alone.

Target: T1, Calpain I (porcine erythrocytes) (Sus scrofa, UniProt P35750)
T1 construct: Calpain I (porcine erythrocytes, Nacalai Tesque, Kyoto, Japan); purchased Nacalai Tesque, Kyoto, Japan; host or cells: porcine erythrocytes (natural tissue source)
T1 sequence (P35750 1-714): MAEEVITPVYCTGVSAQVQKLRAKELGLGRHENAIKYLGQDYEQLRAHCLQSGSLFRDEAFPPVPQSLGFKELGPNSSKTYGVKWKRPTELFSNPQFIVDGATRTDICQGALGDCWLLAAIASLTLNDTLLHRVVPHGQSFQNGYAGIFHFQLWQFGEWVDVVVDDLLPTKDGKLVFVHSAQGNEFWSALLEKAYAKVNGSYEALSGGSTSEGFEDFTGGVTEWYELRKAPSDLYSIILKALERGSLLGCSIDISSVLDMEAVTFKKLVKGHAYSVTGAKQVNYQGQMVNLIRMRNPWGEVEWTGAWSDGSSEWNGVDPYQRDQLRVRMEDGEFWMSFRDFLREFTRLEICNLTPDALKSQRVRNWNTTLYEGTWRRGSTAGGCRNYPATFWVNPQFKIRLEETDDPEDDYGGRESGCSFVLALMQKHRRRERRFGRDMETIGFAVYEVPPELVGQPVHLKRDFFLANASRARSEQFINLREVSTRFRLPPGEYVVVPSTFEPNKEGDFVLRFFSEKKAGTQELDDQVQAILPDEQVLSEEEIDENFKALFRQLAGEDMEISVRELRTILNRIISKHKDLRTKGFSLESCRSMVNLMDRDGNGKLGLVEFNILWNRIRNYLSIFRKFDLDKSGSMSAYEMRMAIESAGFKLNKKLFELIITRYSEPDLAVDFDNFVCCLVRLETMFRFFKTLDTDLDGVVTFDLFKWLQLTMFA
T1 sequence (P04574 1-266 partner): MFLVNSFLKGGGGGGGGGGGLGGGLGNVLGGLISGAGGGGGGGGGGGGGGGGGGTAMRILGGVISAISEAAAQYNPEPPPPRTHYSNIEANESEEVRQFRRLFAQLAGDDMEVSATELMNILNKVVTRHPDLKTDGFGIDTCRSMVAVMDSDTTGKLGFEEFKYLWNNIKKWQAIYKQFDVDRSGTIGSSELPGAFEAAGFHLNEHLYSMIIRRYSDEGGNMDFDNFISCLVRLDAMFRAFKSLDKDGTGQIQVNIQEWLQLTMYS
Experiment: Calpain assay, continuous spectrofluorometric assay with SLY-MCA
Format: biochemical
Conditions: SLY-MCA substrate, 25° C., pH 7.5, competitive inhibition fit, read-out: Ki, pCal I
Procedure: Calpain activity was monitored using a continuous spectrofluorometric assay with succinyl-Leucyl-Tyrosyl-4-methylcoumaryl-γ-amide (SLY-MCA); Sasaki, T.; Kikuchi, T.; Yumotogo, N.; Yoshimura, N. and Murachi, T. J. Biol. Chem. 1984, 259. 12489-12494) at 25° C. using a Hitachi F4500 fluorescence spectrophotometer with a temperature controlled cuvette holder. The substrate solution was composed of SLY-MCA (2-0.2 mM) in 50 mM MOPS, pH 7.5, 5 mM CaCl2, 5 mM β-mercaptoethanol and 1% DMSO. Solutions of the inhibitors (100-500 nM) were prepared in the same buffer mixture as substrate. Calpain I (porcine erythrocytes, Nacalai Tesque, Kyoto, Japan) was diluted to 180 ug/mL in 20 mM HEPES, pH 7.5, 2 mM EDTA, 2 mM EGTA and 5 mM DTT. The substrate solution (0.9 mL) was placed in a 1 cm cuvette and to this was added either the inhibitor solution (0.05 mL) or the buffer (0.05 mL) as a control. The reaction was initiated by addition of the calpain I solution (0.05 mL) and the increase in fluorescence (excitation at 380 nm; emission at 460 nm) was monitored for 3 to 10 min. The initial velocities were then used to obtain the values of Vmax, Km and Ki by an iterative least squares fit of the data to the following equation for competitive inhibition according to the method of W. W. Cleland, Biochim. Biophys. Acta 67: 173 (1963).
V={Vmax ·[SLY-MCA]}/{(1+Inh]/Kl)·Km+[SLY-MCA]}

| Molecule | Ki |
| --- | --- |
| CCNC(=O)C(=O)C(CC)NC(=O)C(CC(C)C)NC(=O)OC(C)(C)C [Boc-L-Leu-L-Abu-CONH-Et] | 170 ± 15 nM |
| CCC(NC(=O)C(CC(C)C)NC(=O)OCc1ccccc1)C(=O)C(=O)NCCS(=O)(=O)CC [Cbz-L-Leu-L-Abu-C(O)-NH-(CH2)2 -SO2 -ET, Cbz-L-Leu-L-Abu-C(O)--NH--(CH2)2 --SO2 --Et] | 129 ± 15 nM |
| CC(C)C[C@H](NC(=O)OCc1ccccc1)C(=O)N[C@@H](Cc1ccccc1)C(=O)C(=O)N[C@@H](C)C(=O)O [Cbz-L-Leu-L-Phe-C(O)-L-Ala-OH] | 718 ± 84 nM |
| COC(=O)C(C)NC(=O)C(=O)C(Cc1ccccc1)NC(=O)C(CC(C)C)NC(=O)OCc1ccccc1 [Cbz-L-Leu-L-Phe-C(O)-L-Ala-OMe] | 92 ± 6 nM |
| CCC(NC(=O)C(=O)C(Cc1ccccc1)NC(=O)C(CC(C)C)NC(=O)OCc1ccccc1)C(=O)OC [Cbz-L-Leu-L-Phe-C(O)-L-α-Abu-OMe] | 141 ± 22 nM |
| COC(=O)[C@H](Cc1ccc(OC(C)(C)C)cc1)NC(=O)C(=O)C(Cc1ccccc1)NC(=O)[C@H](CC(C)C)NC(=O)OCc1ccccc1 (stereo partly drawn) [Cbz-L-Leu-L-Phe-C(O)-Tyr(O-t-butyl)-OMe] | 273 ± 17 nM |
| CCCC(NC(=O)C(CC(C)C)NC(=O)C(N)Cc1ccccc1)C(=O)C(=O)NCC [D-Phe-L-Leu-L-Norvaline-CONH-Et.HCl, D-Phe-L-Leu-L-Norvaline-CONH-Et·HCl] | 244 ± 11 nM |
| CCNC(=O)C(=O)C(CC)NC(=O)C(CC(C)C)NC(=O)N(C)C [Dimethylurea-L-Leu-L-Abu-CONH-Et] | 332 ± 29 nM |
| CCCC(NC(=O)C(CC(C)C)NC(=O)C(N)Cc1ccccc1)C(=O)C(=O)NCC [L-Phe-L-Leu-L-Norvaline-CONH-Et.HCl, L-Phe-L-Leu-L-Norvaline-CONH-Et·HCl] | 116 ± 5 nM |
| CCNC(=O)C(=O)C(CC)NC(=O)C(CC(C)C)NC(=O)N1CCOCC1 [Morpholinourea-L-Leu-L-Abu-CONH-Et] | 199 ± 16 nM |
| Boc-D-Phe-L-Leu-L-Norvaline-CONH-Et | 93 ± 4 nM |
| Boc-L-Phe-L-Leu-L-Norvaline-CONH-Et | 61 ± 2 nM |
| Cbz-L-Leu-L-Abu-CONH-Et | 77 ± 10 nM |
| Cbz-L-Leu-L-Norvaline-CONH-Et | 78 nM |
| Cbz-L-Leu-L-Phe-C(O)-L-Norleucine-OMe | 76.6 ± 5.2 nM |
| Cbz-L-Leu-L-Phe-C(O)-Phe-OMe | 31 ± 12 nM |
| Cbz-L-Leu-L-Phenylalanine-CONH-Et | 89 nM |

Target: T1, Calpain I (porcine erythrocytes)
Experiment: as above
Format: biochemical
Conditions: not given

| Molecule | IC50 |
| --- | --- |
| CCNC(=O)C(=O)C(Cc1ccccc1)NC(=O)C(CC(C)C)NC(=O)OCc1ccccc1 [Cbz-L-Leu-D-Phe-CONH-Et] | > 1500 nM |
